Values of other authors as cited in patent publication US20250143905A1, “TOPICAL TREATMENT FOR ANORECTAL DISORDERS WITH AND WITHOUT SEAT CUSHION” (priority 2019, published 2025).

Tested on: PPAR-γ
Settings: septic rats; pretreatment with curcumin for 3 days at 0.24 μmol/kg body weight; liver

SMILES: COc1cc(/C=C/C(=O)CC(=O)/C=C/c2ccc(O)c(OC)c2)ccc1O [curcumin]
- increase in PPAR-γ mRNA levels: 45%
- increase in PPAR-γ protein levels: 65%
